Reference: PMC2964301, “Human α3β4 Neuronal Nicotinic Receptors Show Different Stoichiometry if They Are Expressed in Xenopus Oocytes or Mammalian HEK293 Cells” (PLoS ONE, 2010)

What was measured:
Assay type in all cases: cell-based
[1] = molecular target: T1, human α3β4 nicotinic receptor in Xenopus oocytes, 9:1 α:β cRNA (putative three-α form) (Homo sapiens, UniProt P30926+P32297); experiment: two-electrode voltage clamp, extrapolated from low-concentration potency ratio; conditions: agonist, unreliable (extrapolated assuming identical efficacy to ACh)
T1 construct: gene CHRNA3; untagged; Xenopus laevis oocytes, 9:1 α:β cRNA; heteropentamer, putative (α3)3(β4)2

[2] = molecular target: T2, human α3β4 nicotinic receptor in Xenopus oocytes, 1:9 α:β cRNA (putative two-α form) (Homo sapiens, UniProt P30926+P32297); experiment: as above; conditions: agonist, unreliable (extrapolated assuming identical efficacy to ACh)
T2 construct: gene CHRNA3; untagged; Xenopus laevis oocytes, 1:9 α:β cRNA; heteropentamer, putative (α3)2(β4)3
Target sequence in this assay (P30926 22-498): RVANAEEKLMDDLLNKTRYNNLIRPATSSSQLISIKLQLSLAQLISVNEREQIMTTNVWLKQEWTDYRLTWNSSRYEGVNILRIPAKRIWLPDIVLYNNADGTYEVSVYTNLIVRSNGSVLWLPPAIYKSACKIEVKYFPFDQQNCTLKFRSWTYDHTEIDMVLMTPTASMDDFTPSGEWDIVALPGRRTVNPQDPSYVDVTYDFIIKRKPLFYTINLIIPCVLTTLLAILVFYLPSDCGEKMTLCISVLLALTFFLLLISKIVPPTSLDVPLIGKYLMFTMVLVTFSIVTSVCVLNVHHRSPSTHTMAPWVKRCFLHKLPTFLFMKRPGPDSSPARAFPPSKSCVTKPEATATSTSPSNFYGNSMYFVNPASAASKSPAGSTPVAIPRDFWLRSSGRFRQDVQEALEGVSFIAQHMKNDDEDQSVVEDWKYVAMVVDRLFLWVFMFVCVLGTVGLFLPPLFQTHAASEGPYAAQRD
Target sequence in this assay (P32297 32-505): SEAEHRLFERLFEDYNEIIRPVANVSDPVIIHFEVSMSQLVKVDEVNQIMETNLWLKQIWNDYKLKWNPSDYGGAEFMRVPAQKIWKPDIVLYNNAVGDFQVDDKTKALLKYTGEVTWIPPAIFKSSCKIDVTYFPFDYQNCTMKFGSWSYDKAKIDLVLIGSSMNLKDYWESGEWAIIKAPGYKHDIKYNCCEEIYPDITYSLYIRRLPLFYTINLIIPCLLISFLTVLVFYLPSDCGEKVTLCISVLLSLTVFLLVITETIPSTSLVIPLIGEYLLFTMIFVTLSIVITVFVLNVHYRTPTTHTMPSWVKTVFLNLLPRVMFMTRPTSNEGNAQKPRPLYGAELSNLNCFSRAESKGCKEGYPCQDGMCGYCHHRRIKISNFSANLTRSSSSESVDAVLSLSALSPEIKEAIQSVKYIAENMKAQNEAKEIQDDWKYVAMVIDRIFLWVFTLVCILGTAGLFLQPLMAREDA

[3] = molecular target: T2, human α3β4 nicotinic receptor in Xenopus oocytes, 1:9 α:β cRNA (putative two-α form); experiment: two-electrode voltage clamp, partial dose-response curves; conditions: agonist, -70 mV, pH 7.2, nominally Ca-free, 0.5 µM atropine, 18°C, low concentrations
Source text: two-electrode voltage clamp, partial dose-response curves on human α3β4 nicotinic receptor in Xenopus oocytes, 1:9 α:β cRNA (putative two-α form)

T1 sequence (P30926 22-498): as the sequence (P30926 22-498) above
T1 sequence (P32297 32-505): as the sequence (P32297 32-505) above

Compound | EC 50 [1] | EC 50 [2] | Potency ratio [3]
C[N+]1(C)CCN(c2ccccc2)CC1 [DMPP, 1,1-dimethyl-4-phenylpiperazinium iodide] | ~ 30 µM | ~ 140 µM | –
C[N+](C)(C)CCOC(N)=O [carbachol] | – | – | 0.094±0.003
O=c1cccc2n1C[C@@H]1CNC[C@H]2C1 [cytisine] | – | – | 1.40±0.15
Clc1ccc(C2CC3CCC2N3)cn1 (stereo not shown) [epibatidine] | – | – | 6290±815
CN1[C@@H](CC(=O)c2ccccc2)CCC[C@H]1C[C@H](O)c1ccccc1 [lobeline] | – | – | 7.35±0.56
CN1CCC[C@H]1c1cccnc1 [nicotine] | – | – | 1.43±0.14
